Results reported in PubChem BioAssay (NCI).
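Abbreviation: GI50, concentration required for 50% inhibition of growth. TGI: concentration producing complete growth inhibition.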

What was measured:
Test in all cases: NCI anticancer screen, dose series, 384-well format
IGROV1 ovarian = tested on: IGROV1 ovarian
MCF7 breast = tested on: MCF7 breast
HT29 colon = tested on: HT29 colon
A498 renal = tested on: A498 renal
OVCAR-4 ovarian = tested on: OVCAR-4 ovarian
MDA-MB-468 breast = tested on: MDA-MB-468 breast
SF-295 CNS = tested on: SF-295 CNS
PC-3 prostate = tested on: PC-3 prostate
T-47D breast = tested on: T-47D breast
SK-OV-3 ovarian = tested on: SK-OV-3 ovarian
DU-145 prostate = tested on: DU-145 prostate
CCRF-CEM leukemia = tested on: CCRF-CEM leukemia
HL-60(TB) leukemia = tested on: HL-60(TB) leukemia
SNB-19 CNS = tested on: SNB-19 CNS
MDA-MB-231 breast = tested on: MDA-MB-231 breast
UO-31 renal = tested on: UO-31 renal
M14 melanoma = tested on: M14 melanoma
COLO 205 colon = tested on: COLO 205 colon
HCC-2998 colon = tested on: HCC-2998 colon
SR leukemia = tested on: SR leukemia
MDA-MB-435 melanoma = tested on: MDA-MB-435 melanoma
MALME-3M melanoma = tested on: MALME-3M melanoma
RPMI-8226 leukemia = tested on: RPMI-8226 leukemia
786-0 renal = tested on: 786-0 renal
UACC-62 melanoma = tested on: UACC-62 melanoma
NCI-H460 NSCLC = tested on: NCI-H460 NSCLC
NCI-H226 lung = tested on: NCI-H226 lung
HOP-62 NSCLC = tested on: HOP-62 NSCLC
HCT-116 colon = tested on: HCT-116 colon
BT-549 breast = tested on: BT-549 breast
SN12C renal = tested on: SN12C renal
UACC-257 melanoma = tested on: UACC-257 melanoma
U251 glioblastoma = tested on: U251 glioblastoma
NCI-H23 lung = tested on: NCI-H23 lung
TK-10 renal = tested on: TK-10 renal
HOP-92 NSCLC = tested on: HOP-92 NSCLC
CAKI-1 renal = tested on: CAKI-1 renal
MOLT-4 leukemia = tested on: MOLT-4 leukemia
ACHN renal = tested on: ACHN renal
SK-MEL-5 melanoma = tested on: SK-MEL-5 melanoma
NCI/ADR-RES ovarian = tested on: NCI/ADR-RES ovarian
OVCAR-8 ovarian = tested on: OVCAR-8 ovarian
KM12 colon = tested on: KM12 colon
HCT-15 colon = tested on: HCT-15 colon
RXF 393 renal = tested on: RXF 393 renal
NCI-H322M lung = tested on: NCI-H322M lung
K-562 leukemia = tested on: K-562 leukemia
NCI-H522 lung = tested on: NCI-H522 lung
SK-MEL-2 melanoma = tested on: SK-MEL-2 melanoma
OVCAR-5 ovarian = tested on: OVCAR-5 ovarian
SF-539 CNS = tested on: SF-539 CNS
LOX IMVI melanoma = tested on: LOX IMVI melanoma
SF-268 CNS = tested on: SF-268 CNS
SK-MEL-28 melanoma = tested on: SK-MEL-28 melanoma
A549 NSCLC = tested on: A549 NSCLC
OVCAR-3 ovarian = tested on: OVCAR-3 ovarian
SW-620 colon = tested on: SW-620 colon

Compound `Cn1cc(S(=O)(=O)N2CCC3=Cc4c(cnn4-c4ccc(F)cc4)C[C@]3(C(=O)c3cc(C(F)(F)F)ccn3)C2)cn1` has a GI50 (IGROV1 ovarian) of 14.1 µM, a TGI (IGROV1 ovarian) greater than 100 µM and a GI50 (MCF7 breast) of 8.88 µM. The TGI (MCF7 breast) was greater than 100 µM, the GI50 (HT29 colon) was greater than 100 µM and the TGI (HT29 colon) was greater than 100 µM. The GI50 (A498 renal) was 12.5 µM, the TGI (A498 renal) was greater than 100 µM and the GI50 (OVCAR-4 ovarian) was 3.97 µM. The TGI (OVCAR-4 ovarian) was greater than 100 µM, the GI50 (MDA-MB-468 breast) was 1.84 µM and the TGI (MDA-MB-468 breast) was 6.55 µM. The GI50 (SF-295 CNS) was 11.5 µM, the TGI (SF-295 CNS) was greater than 100 µM and the GI50 (PC-3 prostate) was 9.49 µM. The TGI (PC-3 prostate) was greater than 100 µM, the GI50 (T-47D breast) was 3.09 µM and the TGI (T-47D breast) was greater than 100 µM. For the same compound, the GI50 (SK-OV-3 ovarian) was 5.8 µM, the TGI (SK-OV-3 ovarian) was greater than 100 µM and the GI50 (DU-145 prostate) was greater than 100 µM. It also gave a TGI (DU-145 prostate) greater than 100 µM, a GI50 (CCRF-CEM leukemia) of 4.73 µM and a TGI (CCRF-CEM leukemia) greater than 100 µM. The GI50 (HL-60(TB) leukemia) was 4.66 µM, the TGI (HL-60(TB) leukemia) was 12.9 µM and the GI50 (SNB-19 CNS) was greater than 100 µM. The TGI (SNB-19 CNS) was greater than 100 µM, the GI50 (MDA-MB-231 breast) was 53.3 µM and the TGI (MDA-MB-231 breast) was greater than 100 µM. For the same compound, the GI50 (UO-31 renal) was 11.8 µM, the TGI (UO-31 renal) was greater than 100 µM and the GI50 (M14 melanoma) was greater than 100 µM. It also gave a TGI (M14 melanoma) greater than 100 µM, a GI50 (COLO 205 colon) greater than 100 µM and a TGI (COLO 205 colon) greater than 100 µM. It also gave a GI50 (HCC-2998 colon) greater than 100 µM, a TGI (HCC-2998 colon) greater than 100 µM and a GI50 (SR leukemia) of 1.87 µM. For the same compound, the TGI (SR leukemia) was 3.82 µM, the GI50 (MDA-MB-435 melanoma) was greater than 100 µM and the TGI (MDA-MB-435 melanoma) was greater than 100 µM. For the same compound, the GI50 (MALME-3M melanoma) was 19.2 µM, the TGI (MALME-3M melanoma) was 71.1 µM and the GI50 (RPMI-8226 leukemia) was 0.831 µM. The TGI (RPMI-8226 leukemia) was 3.1 µM, the GI50 ([…]-0 renal) was 66 µM and the TGI (786-0 renal) was greater than 100 µM. For the same compound, the GI50 (UACC-62 melanoma) was 38.6 µM, the TGI (UACC-62 melanoma) was greater than 100 µM and the GI50 (NCI-H460 NSCLC) was 3.12 µM. The TGI (NCI-H460 NSCLC) was greater than 100 µM, the GI50 (NCI-H226 lung) was 20.3 µM and the TGI (NCI-H226 lung) was greater than 100 µM. It also gave a GI50 (HOP-62 NSCLC) of 5.17 µM, a TGI (HOP-62 NSCLC) greater than 100 µM and a GI50 (HCT-116 colon) of 3.29 µM. It also gave a TGI (HCT-116 colon) greater than 100 µM, a GI50 (BT-549 breast) of 6.96 µM and a TGI (BT-549 breast) of 55.7 µM. For the same compound, the GI50 (SN12C renal) was greater than 100 µM, the TGI (SN12C renal) was greater than 100 µM and the GI50 (UACC-257 melanoma) was 7.32 µM. It also gave a TGI (UACC-257 melanoma) greater than 100 µM, a GI50 (U251 glioblastoma) of 15.4 µM and a TGI (U251 glioblastoma) greater than 100 µM. The GI50 (NCI-H23 lung) was 1.34 µM, the TGI (NCI-H23 lung) was 4.6 µM and the GI50 (TK-10 renal) was 78.8 µM. For the same compound, the TGI (TK-10 renal) was greater than 100 µM, the GI50 (HOP-92 NSCLC) was 11.8 µM and the TGI (HOP-92 NSCLC) was greater than 100 µM. For the same compound, the GI50 (CAKI-1 renal) was 25.6 µM, the TGI (CAKI-1 renal) was greater than 100 µM and the GI50 (MOLT-4 leukemia) was 3.09 µM. The TGI (MOLT-4 leukemia) was 9.44 µM, the GI50 (ACHN renal) was 31.6 µM and the TGI (ACHN renal) was greater than 100 µM. The GI50 (SK-MEL-5 melanoma) was 7.3 µM, the TGI (SK-MEL-5 melanoma) was greater than 100 µM and the GI50 (NCI/ADR-RES ovarian) was 7.38 µM. For the same compound, the TGI (NCI/ADR-RES ovarian) was greater than 100 µM, the GI50 (OVCAR-8 ovarian) was 46.8 µM and the TGI (OVCAR-8 ovarian) was greater than 100 µM. The GI50 (KM12 colon) was 46.6 µM, the TGI (KM12 colon) was greater than 100 µM and the GI50 (HCT-15 colon) was greater than 100 µM. The TGI (HCT-15 colon) was greater than 100 µM, the GI50 (RXF 393 renal) was 1.98 µM and the TGI (RXF 393 renal) was 8.01 µM. The GI50 (NCI-H322M lung) was greater than 100 µM, the TGI (NCI-H322M lung) was greater than 100 µM and the GI50 (K-562 leukemia) was 3.27 µM. It also gave a TGI (K-562 leukemia) greater than 100 µM, a GI50 (NCI-H522 lung) of 3.19 µM and a TGI (NCI-H522 lung) of 81.2 µM. It also gave a GI50 (SK-MEL-2 melanoma) of 42.8 µM, a TGI (SK-MEL-2 melanoma) greater than 100 µM and a GI50 (OVCAR-5 ovarian) greater than 100 µM. For the same compound, the TGI (OVCAR-5 ovarian) was greater than 100 µM, the GI50 (SF-539 CNS) was 54.3 µM and the TGI (SF-539 CNS) was greater than 100 µM. The GI50 (LOX IMVI melanoma) was 49 µM, the TGI (LOX IMVI melanoma) was greater than 100 µM and the GI50 (SF-268 CNS) was greater than 100 µM. It also gave a TGI (SF-268 CNS) greater than 100 µM, a GI50 (SK-MEL-28 melanoma) greater than 100 µM and a TGI (SK-MEL-28 melanoma) greater than 100 µM. The GI50 (A549 NSCLC) was 8.76 µM, the TGI (A549 NSCLC) was greater than 100 µM and the GI50 (OVCAR-3 ovarian) was 9.32 µM. The TGI (OVCAR-3 ovarian) was greater than 100 µM, the GI50 (SW-620 colon) was greater than 100 µM and the TGI (SW-620 colon) was greater than 100 µM.
